Here are results for 24 molecules from patent US10392391B2 (Vertex Pharmaceuticals Incorporated, priority 2012, dated 2019).

In this assay the target is ATR kinase (full-length ATR) (Homo sapiens (Human), UniProt Q13535). Nature of the assay: ATR inhibition assay (radioactive-phosphate incorporation). The class given is biochemical. The essentials:
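Ki(app) was fitted by non-linear regression to background-corrected initial rates. Full-length ATR (5 nM) phosphorylated 800 μM peptide using 10 μM [γ-33P]ATP at 25° C in Tris/HCl pH 7.5 buffer with MgCl2, DTT and 7% DMSO. After 10-minute compound pre-incubation and 24-hour reaction, phosphocellulose filters were scintillation counted.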

The mark [1] stands for this setting: Ki(app), 5 nM full-length ATR, 10 μM ATP, 25° C.

Like-named read-outs stand apart in the source and are kept apart here.

Sequence of ATR kinase (full-length ATR) (Q13535 whole entry): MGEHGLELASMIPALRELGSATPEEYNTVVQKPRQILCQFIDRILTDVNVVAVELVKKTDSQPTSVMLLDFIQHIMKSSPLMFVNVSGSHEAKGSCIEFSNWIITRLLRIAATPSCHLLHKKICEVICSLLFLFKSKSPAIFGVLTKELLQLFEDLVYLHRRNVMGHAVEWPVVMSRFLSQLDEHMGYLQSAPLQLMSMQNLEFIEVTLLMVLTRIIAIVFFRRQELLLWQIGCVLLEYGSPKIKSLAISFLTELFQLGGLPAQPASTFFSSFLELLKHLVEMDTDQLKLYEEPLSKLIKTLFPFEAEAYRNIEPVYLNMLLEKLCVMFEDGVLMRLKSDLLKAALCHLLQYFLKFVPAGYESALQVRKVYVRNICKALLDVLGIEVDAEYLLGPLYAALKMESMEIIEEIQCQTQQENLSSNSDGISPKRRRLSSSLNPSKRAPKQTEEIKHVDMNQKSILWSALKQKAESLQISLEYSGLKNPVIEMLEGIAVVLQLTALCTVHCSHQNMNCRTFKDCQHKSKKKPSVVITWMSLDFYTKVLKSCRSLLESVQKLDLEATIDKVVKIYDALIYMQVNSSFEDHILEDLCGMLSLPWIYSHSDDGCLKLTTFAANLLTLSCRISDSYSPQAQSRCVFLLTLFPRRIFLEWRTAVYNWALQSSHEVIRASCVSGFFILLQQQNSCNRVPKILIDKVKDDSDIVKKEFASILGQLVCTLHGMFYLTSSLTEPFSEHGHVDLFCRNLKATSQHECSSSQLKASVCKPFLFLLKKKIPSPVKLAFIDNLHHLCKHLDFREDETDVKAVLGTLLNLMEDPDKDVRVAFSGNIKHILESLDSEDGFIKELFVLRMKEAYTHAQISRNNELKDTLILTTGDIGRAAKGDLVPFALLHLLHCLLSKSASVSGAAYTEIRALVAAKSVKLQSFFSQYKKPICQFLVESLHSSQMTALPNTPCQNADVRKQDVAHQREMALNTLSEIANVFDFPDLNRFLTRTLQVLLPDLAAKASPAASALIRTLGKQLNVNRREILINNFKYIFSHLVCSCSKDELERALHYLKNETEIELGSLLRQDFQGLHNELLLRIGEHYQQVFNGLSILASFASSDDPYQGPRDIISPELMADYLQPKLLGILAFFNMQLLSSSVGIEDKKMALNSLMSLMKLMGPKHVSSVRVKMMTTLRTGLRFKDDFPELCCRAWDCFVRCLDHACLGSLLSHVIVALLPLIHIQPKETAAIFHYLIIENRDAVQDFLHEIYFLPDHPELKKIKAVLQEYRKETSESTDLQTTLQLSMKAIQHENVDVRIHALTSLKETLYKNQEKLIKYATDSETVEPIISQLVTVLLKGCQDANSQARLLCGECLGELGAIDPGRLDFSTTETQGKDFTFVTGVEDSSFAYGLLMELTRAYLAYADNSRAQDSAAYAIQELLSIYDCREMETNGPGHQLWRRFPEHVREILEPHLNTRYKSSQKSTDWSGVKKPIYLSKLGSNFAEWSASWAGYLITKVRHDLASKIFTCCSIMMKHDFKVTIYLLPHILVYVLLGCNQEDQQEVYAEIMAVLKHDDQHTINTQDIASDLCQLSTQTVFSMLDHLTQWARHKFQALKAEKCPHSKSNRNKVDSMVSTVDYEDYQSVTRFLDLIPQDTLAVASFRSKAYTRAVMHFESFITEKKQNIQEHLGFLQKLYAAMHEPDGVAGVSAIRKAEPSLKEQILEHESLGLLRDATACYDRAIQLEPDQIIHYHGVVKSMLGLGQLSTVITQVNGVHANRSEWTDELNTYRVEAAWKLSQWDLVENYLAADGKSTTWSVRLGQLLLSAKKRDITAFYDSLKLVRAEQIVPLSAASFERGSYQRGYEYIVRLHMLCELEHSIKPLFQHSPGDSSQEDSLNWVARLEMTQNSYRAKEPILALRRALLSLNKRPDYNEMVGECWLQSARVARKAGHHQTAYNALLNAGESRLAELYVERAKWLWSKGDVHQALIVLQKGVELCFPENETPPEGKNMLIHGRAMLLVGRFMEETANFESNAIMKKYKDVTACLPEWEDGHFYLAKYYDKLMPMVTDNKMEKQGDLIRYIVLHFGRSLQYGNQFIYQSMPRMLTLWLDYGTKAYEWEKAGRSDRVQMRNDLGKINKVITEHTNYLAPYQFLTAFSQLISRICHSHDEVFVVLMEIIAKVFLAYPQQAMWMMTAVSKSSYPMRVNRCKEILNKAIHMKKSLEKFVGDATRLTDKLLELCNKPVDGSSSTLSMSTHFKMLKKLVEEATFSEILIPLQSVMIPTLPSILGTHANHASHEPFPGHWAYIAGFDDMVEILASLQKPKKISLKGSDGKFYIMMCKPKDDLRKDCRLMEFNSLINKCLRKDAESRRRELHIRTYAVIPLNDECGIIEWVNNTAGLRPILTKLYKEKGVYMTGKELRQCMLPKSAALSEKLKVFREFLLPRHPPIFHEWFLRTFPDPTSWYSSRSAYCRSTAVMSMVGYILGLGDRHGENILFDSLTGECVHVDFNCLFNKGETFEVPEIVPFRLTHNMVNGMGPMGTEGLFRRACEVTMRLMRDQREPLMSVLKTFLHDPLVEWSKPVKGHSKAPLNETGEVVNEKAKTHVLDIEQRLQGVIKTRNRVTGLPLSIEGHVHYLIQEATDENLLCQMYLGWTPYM

`CN1CC[C@@H](OC2CCN(c3c(F)cncc3NC(=O)c3c(N)nn4cc(F)cnc34)CC2)C1` [I-N-132, (R)-2-amino-6-fluoro-N-(5-fluoro-4-(4-((1-methylpyrrolidin-3-yl)oxy)piperidin-1-yl)pyridin-3-yl)pyrazolo[1,5-a]pyrimidine-3-carboxamide]: the Ki is 10 to 1000 nM.
Consider `Cc1ncc(-c2ccncc2NC(=O)c2c(N)nn3cc(F)cnc23)n1C` [I-C-77, 2-amino-N-(4-(1,2-dimethyl-1H-imidazol-5-yl)pyridin-3-yl)-6-fluoropyrazolo[1,5-a]pyrimidine-3-carboxamide], for which, under setting [1], the Ki fell in the range of 10 to 1000 nM.
For `Cc1ccnnc1-c1ccncc1NC(=O)c1c(N)nn2cc(F)cnc12` [I-C-33, 2-amino-6-fluoro-N-(4-(4-methylpyridazin-3-yl)pyridin-3-yl)pyrazolo[1,5-a]pyrimidine-3-carboxamide], the Ki under setting [1] lay within 10 to 1000 nM.
As to `CN1CCN(C(=O)C2CCCN(c3c(F)cncc3NC(=O)c3c(N)nn4cc(F)cnc34)C2)CC1` (stereo not drawn) [I-N-289, 2-amino-6-fluoro-N-(5-fluoro-4-(3-(4-methylpiperazine-1-carbonyl)piperidin-1-yl)pyridin-3-yl)pyrazolo[1,5-a]pyrimidine-3-carboxamide], the Ki lay in the range of 1000 to 5000 nM.
On to `Cn1ccc2c(NC(=O)c3c(N)nn4cc(F)cnc34)cncc21` [I-C-74, 2-amino-6-fluoro-N-(1-methyl-1H-pyrrolo[2,3-c]pyridin-4-yl)pyrazolo[1,5-a]pyrimidine-3-carboxamide], for which, under setting [1], the Ki was 10 to 1000 nM.
As to `COCCN1CCN(c2ccncc2NC(=O)c2c(N)nn3cc(F)cnc23)CC1` [I-N-22, 2-amino-6-fluoro-N-(4-(4-(2-methoxyethyl)piperazin-1-yl)pyridin-3-yl)pyrazolo[1,5-a]pyrimidine-3-carboxamide], the Ki under setting [1] is 10 to 1000 nM.
Take `Nc1nn2cc(F)cnc2c1C(=O)Nc1cncc(F)c1N1CCC(C(=O)N2CC3CCC(C2)N3)CC1` [I-G-44, N-(4-(4-(3,8-diazabicyclo[3.2.1]octane-3-carbonyl)piperidin-1-yl)-5-fluoropyridin-3-yl)-2-amino-6-fluoropyrazolo[1,5-a]pyrimidine-3-carboxamide]: under setting [1], the Ki fell in the range of 10 to 1000 nM.
For the molecule `CN1CC[C@H](Oc2ccncc2NC(=O)c2c(N)nn3cc(F)cnc23)C1` [I-O-1, (S)-2-amino-6-fluoro-N-(4-((1-methylpyrrolidin-3-yl)oxy)pyridin-3-yl)pyrazolo[1,5-a]pyrimidine-3-carboxamide], the Ki under setting [1] is 10 to 1000 nM.
Still for that read-out and setting: as for `Nc1nn2cc(F)cnc2c1C(=O)Nc1cnccc1N1CCC(S(=O)(=O)N2CCOCC2)CC1` [I-N-170, 2-amino-6-fluoro-N-(4-(4-(morpholinosulfonyl)piperidin-1-yl)pyridin-3-yl)pyrazolo[1,5-a]pyrimidine-3-carboxamide], the figure is 10 to 1000 nM; as for `Cc1nccn1-c1ccncc1NC(=O)c1c(N)nn2cc(F)cnc12` [I-N-28, 2-amino-6-fluoro-N-(4-(2-methyl-1H-imidazol-1-yl)pyridin-3-yl)pyrazolo[1,5-a]pyrimidine-3-carboxamide], 10 to 1000 nM; as for `Nc1nn2cc(F)cnc2c1C(=O)Nc1cnccc1C1CCN(C(=O)C2CC2)CC1` [I-C-70, 2-amino-N-(4-(1-(cyclopropanecarbonyl)piperidin-4-yl)pyridin-3-yl)-6-fluoropyrazolo[1,5-a]pyrimidine-3-carboxamide], 10 to 1000 nM.
Still for that read-out and setting: with `Nc1nn2cc(Cl)cnc2c1C(=O)Nc1cncc(F)c1N1CCC(C(=O)N2CCN3CCC2CC3)CC1` [I-G-87, N-(4-(4-(1,4-diazabicyclo[3.2.2]nonane-4-carbonyl)piperidin-1-yl)-5-fluoropyridin-3-yl)-2-amino-6-chloropyrazolo[1,5-a]pyrimidine-3-carboxamide] the figure was 10 to 1000 nM; with `CN1CCN(c2ccncc2NC(=O)c2c(N)nn3cc(CC#N)cnc23)CC1` [I-N-82, 2-amino-6-(cyanomethyl)-N-(4-(4-methylpiperazin-1-yl)pyridin-3-yl)pyrazolo[1,5-a]pyrimidine-3-carboxamide], less than 10 nM; with `Cc1cccnc1-c1ccncc1NC(=O)c1c(N)nn2cc(F)cnc12` [I-C-36, 2-amino-6-fluoro-N-(3-methyl-[2,4′-bipyridin]-3′-yl)pyrazolo[1,5-a]pyrimidine-3-carboxamide], 10 to 1000 nM.
The same measure, in the same setting: with `Nc1nn2cc(F)cnc2c1C(=O)Nc1cncc(F)c1N1CCN([C@H]2CCOC2)CC1` [I-N-125, (S)-2-amino-6-fluoro-N-(5-fluoro-4-(4-(tetrahydrofuran-3-yl)piperazin-1-yl)pyridin-3-yl)pyrazolo[1,5-a]pyrimidine-3-carboxamide] the figure was 10 to 1000 nM.
`CCOc1ccncc1NC(=O)c1c(N)nn2cc(CC#N)cnc12` [I-O-28, 2-amino-6-(cyanomethyl)-N-(4-ethoxypyridin-3-yl)pyrazolo[1,5-a]pyrimidine-3-carboxamide]: the Ki under setting [1] was less than 10 nM.
With `CN1CC(NC(=O)C2CCN(c3c(F)cncc3NC(=O)c3c(N)nn4cc(F)cnc34)CC2)C1` [I-G-23, 2-amino-6-fluoro-N-(5-fluoro-4-(4-((1-methylazetidin-3-yl)carbamoyl)piperidin-1-yl)pyridin-3-yl)pyrazolo[1,5-a]pyrimidine-3-carboxamide], the Ki under setting [1] lay in the range of 10 to 1000 nM.
On the same count and under the same terms, as for `CC1CN(c2ccncc2NC(=O)c2c(N)nn3cc(Cl)cnc23)CCN1C` (stereo not drawn) [I-N-54, 2-amino-6-chloro-N-(4-(3,4-dimethylpiperazin-1-yl)pyridin-3-yl)pyrazolo[1,5-a]pyrimidine-3-carboxamide], the figure is 10 to 1000 nM; as for `CN1CCCN(c2ccncc2NC(=O)c2c(N)nn3cc(Cl)cnc23)CC1` [I-N-43, 2-amino-6-chloro-N-(4-(4-methyl-1,4-diazepan-1-yl)pyridin-3-yl)pyrazolo[1,5-a]pyrimidine-3-carboxamide], 10 to 1000 nM.
Take `CN(C)CCN(C)C(=O)C1CCN(c2c(F)cncc2NC(=O)c2c(N)nn3cc(F)cnc23)CC1` [I-G-31, 2-amino-N-(4-(4-((2-(dimethylamino)ethyl)(methyl)carbamoyl)piperidin-1-yl)-5-fluoropyridin-3-yl)-6-fluoropyrazolo[1,5-a]pyrimidine-3-carboxamide]: under setting [1], the Ki lay in the range of 10 to 1000 nM.
`CN1CCC(C(=O)N2CCN(c3c(F)cncc3NC(=O)c3c(N)nn4cc(F)cnc34)CC2)CC1` [I-N-128, 2-amino-6-fluoro-N-(5-fluoro-4-(4-(1-methylpiperidine-4-carbonyl)piperazin-1-yl)pyridin-3-yl)pyrazolo[1,5-a]pyrimidine-3-carboxamide]: the Ki under setting [1] lay within 10 to 1000 nM.
For `Nc1nn2cc(Cl)cnc2c1C(=O)Nc1cnccc1N1CCN2CCC[C@H]2C1` [I-N-71, (S)-2-amino-6-chloro-N-(4-(hexahydropyrrolo[1,2-a]pyrazin-2(1H)-yl)pyridin-3-yl)pyrazolo[1,5-a]pyrimidine-3-carboxamide], the Ki under setting [1] was 10 to 1000 nM.
Still for that read-out and setting: as for `Nc1nn2cc(F)cnc2c1C(=O)Nc1cncc(Cl)c1N1CCC(O)C1` (stereo not drawn) [I-N-284, 2-amino-N-(5-chloro-4-(3-hydroxypyrrolidin-1-yl)pyridin-3-yl)-6-fluoropyrazolo[1,5-a]pyrimidine-3-carboxamide], the figure is 10 to 1000 nM; as for `CN1CCC(S(=O)(=O)N2CCN(c3c(F)cncc3NC(=O)c3c(N)nn4cc(F)cnc34)CC2)CC1` [I-N-175, 2-amino-6-fluoro-N-(5-fluoro-4-(4-((1-methylpiperidin-4-yl)sulfonyl)piperazin-1-yl)pyridin-3-yl)pyrazolo[1,5-a]pyrimidine-3-carboxamide], 10 to 1000 nM.
